Drawing on DBAASP, this text covers MIC for 7 compounds.

What is called MIC is the lowest concentration found to suppress growth.

Molecules are shown by their SMILES. Converted amounts (≈) assume the structure as drawn. “And” between values parts separate entries of the source, which are not always exact repeats. Equal entries are not always repeated.

What all share (assay): ≥ marks a high value that may be exact or a test limit, other limits are often not marked, values filed in µg/mL are converted to µM
The subject of one experiment is Escherichia coli 1005.
For experiment [1], the system named is Staphylococcus aureus ATCC 25923.
Experiment [2] relates to Salmonella enterica subsp. enterica serovar Typhimurium ATCC 14028.
For a further experiment, the system named is Candida albicans.
Experiment [3] relates to Salmonella enterica subsp. enterica serovar Pullorum ATCC 7913.
The subject of experiment [4] is Candida tropicalis CGMCC 2.1975.
In experiment [5] the test system is Staphylococcus aureus ATCC 43300.
Experiment [6] deals with Candida parapsilosis CGMCC 2.3989.
Experiment [7] has as its system Staphylococcus epidermidis ATCC 12228.
For experiment [8], the system named is Candida krusei CGMCC 2.1857.
The test system of experiment [9] is Staphylococcus aureus ATCC 29213.
In experiment [10] the test system is Fusarium oxysporum KCTC 16909.
For experiment [11], the system named is Trichoderma viride KCTC 16992.
Experiment [12] has as its system Trichophyton rubrum KCTC 6345.
For experiment [13], the system named is Fusarium solani KCTC 6326.
The subject of experiment [14] is Colletotrichum gloeosporioides KCTC 6169.
The test system of experiment [15] is Candida albicans KCTC 7270.
Experiment [16] deals with Candida parapsilosis CCARM 14016.
Experiment [17] concerns Candida albicans CCARM 14020.
For experiment [18], the system named is Aspergillus flavus KCTC 6905.
In experiment [19] the test system is Trichoderma virens KCTC 16924.
The subject of experiment [20] is Candida albicans CCARM 14001.
The subject of experiment [21] is Candida albicans CCARM 14004.
Experiment [22] has as its system Candida krusei CCARM 14017.
Experiment [23] concerns Candida albicans CCARM 14007.
Experiment [24] relates to Fusarium graminearum KCTC 16656.
The test system of experiment [25] is Fusarium verticillioides KCTC 6149.
The test system of experiment [26] is Enterococcus faecalis ATCC 29212.
Experiment [27] concerns Staphylococcus epidermidis KCTC 1917.
Experiment [28] deals with Pseudomonas aeruginosa ATCC 15422.
In experiment [29] the test system is Escherichia coli ATCC 25922.
Experiment [30] deals with Candida albicans ATCC 10231.
The subject of experiment [31] is Legionella pneumophila Lens.

Consider `NC(=O)[C@H](Cc1ccccc1)NC(=O)[C@H](Cc1ccccc1)NC(=O)[C@H](CCCN=C(N)N)NC(=O)[C@H](CCCN=C(N)N)NC(=O)[C@H](Cc1ccccc1)NC(=O)[C@H](CCCN=C(N)N)NC(=O)[C@H](CCCN=C(N)N)NC(=O)[C@H](Cc1ccccc1)NC(=O)[C@@H](N)Cc1ccccc1` [FFRRFRRFF], for which the MIC in the experiment with Escherichia coli 1005 was 8 µM (≈ 11 µg/mL); in experiment [1] it was 4 µM (≈ 5.51 µg/mL); in [2], 4 µM (≈ 5.51 µg/mL); against Candida albicans it was 11.3 µM (≈ 15.6 µg/mL); in experiment [3], no less than 32 µM; in experiment [4], 4 µM (≈ 5.51 µg/mL). The MIC in experiment [5] is 4 µM (≈ 5.51 µg/mL); in experiment [6] it was no less than 64 µM; in [7], 4 µM (≈ 5.51 µg/mL); in experiment [8] it was 4 µM (≈ 5.51 µg/mL); in experiment [9], 8 µM (≈ 11 µg/mL).
`NCCCC[C@H](NC(=O)[C@H](CCCCN)NC(=O)[C@H](Cc1cnc[nH]1)NC(=O)[C@H](CCCCN)NC(=O)[C@H](CCCCN)NC(=O)[C@H](Cc1cnc[nH]1)NC(=O)[C@H](CCCCN)NC(=O)[C@H](CCCCN)NC(=O)[C@H](Cc1cnc[nH]1)NC(=O)[C@H](CCCCN)NC(=O)[C@H](CCCCN)NC(=O)[C@H](Cc1cnc[nH]1)NC(=O)[C@H](CCCCN)NC(=O)[C@H](CCCCN)NC(=O)[C@H](Cc1cnc[nH]1)NC(=O)[C@H](CCCCN)NC(=O)[C@H](CCCCN)NC(=O)[C@H](Cc1cnc[nH]1)NC(=O)[C@H](CCCCN)NC(=O)[C@H](CCCCN)NC(=O)[C@H](Cc1cnc[nH]1)NC(=O)[C@H](CCCCN)NC(=O)[C@H](CCCCN)NC(=O)[C@@H](N)Cc1cnc[nH]1)C(N)=O` [HKKHKKHKKHKKHKKHKKHKKHKK]: the MIC is 2 µM (≈ 6.33 µg/mL) in experiment [10]; 1 µM (≈ 3.16 µg/mL) in experiment [11]; 2 µM (≈ 6.33 µg/mL) in [12]; 1 µM (≈ 3.16 µg/mL) in experiment [13]; 1 µM (≈ 3.16 µg/mL) in experiment [14]; 8 µM (≈ 25.3 µg/mL) in [15]. Moreover, the MIC came out at 8 µM (≈ 25.3 µg/mL) in experiment [16]; 8 µM (≈ 25.3 µg/mL) in experiment [17]; 2 µM (≈ 6.33 µg/mL) in [18]; 4 µM (≈ 12.7 µg/mL) in experiment [19]; 8 µM (≈ 25.3 µg/mL) in experiment [20]; 8 µM (≈ 25.3 µg/mL) in [21]. The MIC in [22] was determined as 4 µM (≈ 12.7 µg/mL); in [23], 8 µM (≈ 25.3 µg/mL); in experiment [24], 4 µM (≈ 12.7 µg/mL); in experiment [25] it was 2 µM (≈ 6.33 µg/mL).
With `NCCCC[C@H](NC(=O)[C@H](CCCCN)NC(=O)[C@H](Cc1cnc[nH]1)NC(=O)[C@H](CCCCN)NC(=O)[C@H](CCCCN)NC(=O)[C@H](Cc1cnc[nH]1)NC(=O)[C@H](CCCCN)NC(=O)[C@H](CCCCN)NC(=O)[C@@H](N)Cc1cnc[nH]1)C(N)=O` [HKKHKKHKK], the MIC is no less than 32 µM in [10]; 16 µM (≈ 19.2 µg/mL) in experiment [11]; no less than 32 µM in [12]; 16 µM (≈ 19.2 µg/mL) in experiment [13]; 8 µM (≈ 9.58 µg/mL) in experiment [14]; no less than 64 µM in experiment [15]. The MIC in [16] is no less than 32 µM; in experiment [17], no less than 64 µM; in [18], 16 µM (≈ 19.2 µg/mL); in experiment [19], 16 µM (≈ 19.2 µg/mL); in experiment [20], no less than 64 µM; in experiment [21] it was no less than 64 µM. For the same compound, the MIC in experiment [22] was 16 µM (≈ 19.2 µg/mL); in [23] it was no less than 64 µM; in experiment [24] it was no less than 32 µM; in experiment [25] it was 16 µM (≈ 19.2 µg/mL).
Turning to `CC(C)C[C@H](NC(=O)CNC(=O)[C@H](Cc1ccc(O)cc1)NC(=O)[C@H](Cc1cnc[nH]1)NC(=O)[C@@H]1CCCN1C(=O)[C@H](CC(C)C)NC(=O)[C@H](CCC(=O)O)NC(=O)[C@H](Cc1ccccc1)NC(=O)[C@H](C)NC(=O)[C@H](CO)NC(=O)[C@@H](N)CCCCN)C(=O)O` [KSAFELPHYGL], the MIC in experiment [26] is 252 µM and 205 µM and 184 µM; in [27], no less than 250 µM; in experiment [28], no less than 500 µM; in experiment [29], greater than 500 µM; in experiment [30], greater than 500 µM.
In turn, `CC[C@H](C)[C@H](NC(=O)[C@H](CC(C)C)NC(=O)CNC(=O)[C@H](CCCCN)NC(=O)[C@@H](NC(=O)[C@@H](NC(=O)[C@H](CCC(=O)O)NC(=O)[C@@H](NC(=O)[C@H](Cc1ccccc1)NC(=O)[C@H](CCCCN)NC(=O)[C@H](C)NC(=O)[C@@H](NC(=O)[C@@H](NC(=O)[C@H](CC(=O)O)NC(=O)[C@H](C)NC(=O)[C@@H](N)CCSC)C(C)C)[C@@H](C)CC)C(C)C)[C@@H](C)CC)C(C)C)C(=O)N[C@@H](CC(=O)O)C(=O)N[C@@H](CCC(N)=O)C(=O)N[C@@H](Cc1ccccc1)C(=O)N[C@H](C(=O)N[C@@H](CCC(N)=O)C(=O)N[C@@H](CCCCN)C(=O)O)[C@@H](C)O` [MADVIAKFVEIVKGLIDQFTQK] displayed an MIC in experiment [31] of 5.01 µM (≈ 12.5 µg/mL).
On the same count and under the same terms, the value for `CC[C@H](C)[C@H](NC(=O)[C@H](Cc1ccccc1)NC(=O)[C@H](CC(=O)O)NC(=O)[C@@H](NC(=O)[C@H](C)NC(=O)[C@H](CCCCN)NC(=O)[C@H](CCCCN)NC(=O)[C@@H](NC(=O)[C@H](CC(C)C)NC(=O)[C@H](CC(=O)O)NC(=O)[C@@H](NC(=O)[C@@H](NC(=O)[C@H](Cc1ccccc1)NC(=O)[C@H](CCC(N)=O)NC(=O)[C@@H](N)CCSC)[C@@H](C)CC)[C@@H](C)O)[C@@H](C)CC)C(C)C)C(=O)N[C@@H](CCCCN)C(=O)NCC(=O)N[C@@H](CC(C)C)C(=O)N[C@@H](Cc1ccccc1)C(=O)NCC(=O)N[C@@H](CC(N)=O)C(=O)N[C@@H](CCCCN)C(=O)O` [MQFITDLIKKAVDFIKGLFGNK] was 1.23 µM (≈ 3.11 µg/mL).
In the case of `CC[C@H](C)[C@H](NC(=O)[C@H](CCCN=C(N)N)NC(=O)[C@H](CCCN=C(N)N)NC(=O)[C@@H](NC(=O)[C@@H](NC(=O)[C@@H](N)CCCN=C(N)N)[C@@H](C)CC)[C@@H](C)CC)C(=O)N[C@@H](CCCN=C(N)N)C(=O)N[C@@H](CCCN=C(N)N)C(=O)N[C@H](C(=O)N[C@H](C(=O)N[C@@H](CCCN=C(N)N)C(N)=O)[C@@H](C)CC)[C@@H](C)CC` [RIIRRIRRIIR], the MIC against Escherichia coli 1005 was determined as 8 µM (≈ 12.2 µg/mL); in experiment [1] it was 32 µM (≈ 48.6 µg/mL); in experiment [2], 16 µM (≈ 24.3 µg/mL); in the experiment with Candida albicans it was 8 µM (≈ 12.2 µg/mL); in experiment [3] it was 16 µM (≈ 24.3 µg/mL); in experiment [4], 1 µM (≈ 1.52 µg/mL). For the same compound, the MIC in experiment [5] is 16 µM (≈ 24.3 µg/mL); in [6], no less than 64 µM; in experiment [7], 16 µM (≈ 24.3 µg/mL); in experiment [8], 4 µM (≈ 6.08 µg/mL); in experiment [9], 64 µM (≈ 97.3 µg/mL); in experiment [29], 16 µM and 32 µM.
